From ChEMBL document CHEMBL3351515, “α-Hexylcinnamaldehyde inhibits the genotoxicity of environmental pollutants in the bacterial reverse mutation assay” (2014)

Columns and labels:
[1] = tested on: Escherichia coli; test: Antimutagenic activity against methyl methansulfonate-induced revertant colonies in Escherichia coli WP2uvrA assessed as number of revertant colonies measured post-treatment at 180 uM (reference value: 726.7 +/- 12.7) in absence of mammalian S9 fraction; format: functional
[2] = tested on: Salmonella typhimurium; test: Antimutagenic activity against sodium azide-induced revertant colonies in Salmonella typhimurium TA100 assessed as number of revertant colonies measured cotreatment at 900 uM (reference value: 1588 +/- 55.6) in absence of mammalian S9 fraction; format: functional, Salmonella enterica subsp. enterica serovar Typhimurium
[3] = tested on: Salmonella typhimurium; test: Antimutagenic activity against 1-nitropyrene-induced revertant colonies in Salmonella typhimurium TA98NR assessed as inhibition of mutagenicity measured at 900 uM; format: functional, Salmonella enterica subsp. enterica serovar Typhimurium; details: Salmonella enterica
[4] = tested on: Salmonella typhimurium; test: Antimutagenic activity against 2-aminoanthracene-induced revertant colonies in Salmonella typhimurium TA100 assessed as number of revertant colonies measured cotreatment at 90 uM (reference value: 457.9 +/- 16.74) in presence of mammalian S9 fraction; format: functional, Salmonella enterica subsp. enterica serovar Typhimurium
[5] = tested on: Escherichia coli; test: Antimutagenic activity against methyl methansulfonate-induced revertant colonies in Escherichia coli WP2uvrA assessed as number of revertant colonies measured post-treatment at 900 uM (reference value: 726.7 +/- 12.7) in absence of mammalian S9 fraction; format: functional
[6] = tested on: Salmonella typhimurium; test: Antimutagenic activity against sodium azide-induced revertant colonies in Salmonella typhimurium TA100 assessed as number of revertant colonies measured pretreatment at 900 uM (reference value: 1968 +/- 46.9) in absence of mammalian S9 fraction; format: functional, Salmonella enterica subsp. enterica serovar Typhimurium
[7] = tested on: Salmonella typhimurium; test: Antimutagenic activity against 1-nitropyrene-induced revertant colonies in Salmonella typhimurium TA98NR assessed as inhibition of mutagenicity measured at 9 to 18 uM; format: functional, Salmonella enterica subsp. enterica serovar Typhimurium
[8] = tested on: Escherichia coli; test: Antimutagenic activity against 2-aminoanthracene-induced revertant colonies in Escherichia coli WP2uvrA assessed as number of revertant colonies measured post-treatment at 180 uM (reference value: 308 +/- 4) in presence of mammalian S9 fraction; format: functional
[9] = tested on: Salmonella typhimurium; test: Antimutagenic activity against sodium azide-induced revertant colonies in Salmonella typhimurium TA100 assessed as number of revertant colonies measured post-treatment at 900 uM (reference value: 1909 +/- 29.7) in absence of mammalian S9 fraction; format: functional, Salmonella enterica subsp. enterica serovar Typhimurium
[10] = tested on: Escherichia coli; test: Antimutagenic activity against 2-aminoanthracene-induced revertant colonies in Escherichia coli WP2uvrA assessed as number of revertant colonies measured cotreatment at 90 uM (reference value: 366 +/- 10.3) in presence of mammalian S9 fraction; format: functional
[11] = tested on: Salmonella typhimurium; test: Antimutagenic activity against 2-aminoanthracene-induced revertant colonies in Salmonella typhimurium TA100 assessed as number of revertant colonies measured pretreatment at 18 uM (reference value: 481.3 +/- 5.3) in presence of mammalian S9 fraction; format: functional, Salmonella enterica subsp. enterica serovar Typhimurium
[12] = tested on: Escherichia coli; test: Antimutagenic activity against 2-aminoanthracene-induced revertant colonies in Escherichia coli WP2uvrA assessed as number of revertant colonies measured pretreatment at 18 uM (reference value: 178.7 +/- 11.8) in presence of mammalian S9 fraction; format: functional
[13] = tested on: Salmonella typhimurium; test: Antimutagenic activity against 1-nitropyrene-induced revertant colonies in Salmonella typhimurium TA98 1,8 DNP assessed as inhibition of mutagenicity measured at 90 to 180 uM; format: functional, Salmonella enterica subsp. enterica serovar Typhimurium
[14] = tested on: Escherichia coli; test: Antimutagenic activity against methyl methansulfonate-induced revertant colonies in Escherichia coli WP2uvrA assessed as number of revertant colonies measured pretreatment at 180 uM (reference value: 466.7 +/- 40.4) in absence of mammalian S9 fraction; format: functional
[15] = tested on: Escherichia coli; test: Antimutagenic activity against 2-aminoanthracene-induced revertant colonies in Escherichia coli WP2uvrA assessed as number of revertant colonies measured post-treatment at 900 uM (reference value: 308 +/- 4) in presence of mammalian S9 fraction; format: functional
[16] = tested on: Salmonella typhimurium; test: Antimutagenic activity against 2-aminoanthracene-induced revertant colonies in Salmonella typhimurium TA100 assessed as number of revertant colonies measured cotreatment at 18 uM (reference value: 457.9 +/- 16.74) in presence of mammalian S9 fraction; format: functional, Salmonella enterica subsp. enterica serovar Typhimurium
[17] = tested on: Escherichia coli; test: Antimutagenic activity against methyl methansulfonate-induced revertant colonies in Escherichia coli WP2uvrA assessed as number of revertant colonies measured pretreatment at 9 uM (reference value: 466.7 +/- 40.4) in absence of mammalian S9 fraction; format: functional
[18] = tested on: Salmonella typhimurium; test: Antimutagenic activity against sodium azide-induced revertant colonies in Salmonella typhimurium TA100 assessed as number of revertant colonies measured post-treatment at 9 uM (reference value: 1909 +/- 29.7) in absence of mammalian S9 fraction; format: functional, Salmonella enterica subsp. enterica serovar Typhimurium
[19] = tested on: Salmonella typhimurium; test: Antimutagenic activity against 2-aminoanthracene-induced revertant colonies in Salmonella typhimurium TA100 assessed as number of revertant colonies measured post-treatment at 18 uM (reference value: 642.7 +/- 2.7) in presence of mammalian S9 fraction; format: functional, Salmonella enterica subsp. enterica serovar Typhimurium
[20] = tested on: Salmonella typhimurium; test: Antimutagenic activity against sodium azide-induced revertant colonies in Salmonella typhimurium TA100 assessed as number of revertant colonies measured post-treatment at 18 uM (reference value: 1909 +/- 29.7) in absence of mammalian S9 fraction; format: functional, Salmonella enterica subsp. enterica serovar Typhimurium
[21] = tested on: Escherichia coli; test: Antimutagenic activity against 2-aminoanthracene-induced revertant colonies in Escherichia coli WP2uvrA assessed as number of revertant colonies measured cotreatment at 18 uM (reference value: 366 +/- 10.3) in presence of mammalian S9 fraction; format: functional
[22] = tested on: Salmonella typhimurium; test: Antimutagenic activity against 2-aminoanthracene-induced revertant colonies in Salmonella typhimurium TA100 assessed as number of revertant colonies measured cotreatment at 900 uM (reference value: 457.9 +/- 16.74) in presence of mammalian S9 fraction; format: functional, Salmonella enterica subsp. enterica serovar Typhimurium
[23] = tested on: Salmonella typhimurium; test: Antimutagenic activity against 2-aminoanthracene-induced revertant colonies in Salmonella typhimurium TA100 assessed as number of revertant colonies measured pretreatment at 180 uM (reference value: 481.3 +/- 5.3) in presence of mammalian S9 fraction; format: functional, Salmonella enterica subsp. enterica serovar Typhimurium
[24] = tested on: Salmonella typhimurium; test: Antimutagenic activity against sodium azide-induced revertant colonies in Salmonella typhimurium TA100 assessed as number of revertant colonies measured pretreatment at 180 uM (reference value: 1968 +/- 46.9) in absence of mammalian S9 fraction; format: functional, Salmonella enterica subsp. enterica serovar Typhimurium
[25] = tested on: Salmonella typhimurium; test: Antimutagenic activity against sodium azide-induced revertant colonies in Salmonella typhimurium TA100 assessed as number of revertant colonies measured post-treatment at 90 uM (reference value: 1909 +/- 29.7) in absence of mammalian S9 fraction; format: functional, Salmonella enterica subsp. enterica serovar Typhimurium
[26] = tested on: Escherichia coli; test: Antimutagenic activity against 2-aminoanthracene-induced revertant colonies in Escherichia coli WP2uvrA assessed as number of revertant colonies measured post-treatment at 90 uM (reference value: 308 +/- 4) in presence of mammalian S9 fraction; format: functional
[27] = tested on: Escherichia coli; test: Antimutagenic activity against methyl methansulfonate-induced revertant colonies in Escherichia coli WP2uvrA assessed as number of revertant colonies measured pretreatment at 18 uM (reference value: 466.7 +/- 40.4) in absence of mammalian S9 fraction; format: functional
[28] = tested on: Salmonella typhimurium; test: Antimutagenic activity against sodium azide-induced revertant colonies in Salmonella typhimurium TA100 assessed as number of revertant colonies measured post-treatment at 180 uM (reference value: 1909 +/- 29.7) in absence of mammalian S9 fraction; format: functional, Salmonella enterica subsp. enterica serovar Typhimurium
[29] = tested on: Salmonella typhimurium; test: Antimutagenic activity against 1-nitropyrene-induced revertant colonies in Salmonella typhimurium TA98 assessed as inhibition of mutagenicity measured at 900 uM; format: functional, Salmonella enterica subsp. enterica serovar Typhimurium; details: Salmonella enterica

CCCCCC/C(C=O)=C\c1ccccc1
Activity [1]: 488 | Activity [2]: 1451 | inhibition at 900 µM [3]: > 40% | Activity [4]: 408.5 | Activity [5]: 474 | Activity [6]: 1652 | inhibition (INH) [7]: <25% | Activity [8]: 302.7 | Activity [9]: 1671 | Activity [10]: 334.3 | Activity [11]: 453.3 | Activity [12]: 166.7 | inhibition (INH) [13]: 25% | Activity [14]: 376 | Activity [15]: 304.3 | Activity [16]: 446 | Activity [17]: 458.7 | Activity [18]: 1888 | Activity [19]: 530.7 | Activity [20]: 1867 | Activity [21]: 330.7 | Activity [22]: 347 | Activity [23]: 384 | Activity [24]: 1797 | Activity [25]: 1803 | Activity [26]: 308.7 | Activity [27]: 451.3 | Activity [28]: 1771 | inhibition at 900 µM [29]: > 40%
